As a reminder, the IC50 is the concentration at which inhibition is half-maximal.

Like-named read-outs stand apart in the source and are kept apart here.

The text below walks through data of article PMC8395886, “Square-Planar vs. Trigonal Bipyramidal Geometry in Pt(II) Complexes Containing Triazole-Based Glucose Ligands as Potential Anticancer Agents” (International Journal of Molecular Sciences, 2021).

The subject of data set [1] is HaCaT (human keratinocyte cells). Nature of the data set: MTT cytotoxicity assay on HaCaT cells. It counts as cell-based. The following applies: 48 h incubation.
Method: (§6) A431, H9c2, and MCF7 cells were purchased from American Type Culture Collection (ATCC). HaCaT cells were from Innoprot (Derio, Spain). Cells were cultured in DMEM (Sigma-Aldrich, St. Louis, MO, USA), supplemented with 10% fetal bovine serum (HyClone, Thermo Scientific, Logan, UT, USA) and antibiotics in a 5% CO2 humidified atmosphere at 37 °C. The growth medium of H9c2 cells was implemented with 2 mM L-glutamine and 2 mM sodium pyruvate. Cells were seeded in 96-well plates at a density of 2.5 × 10^3 cells per well. Different drugs were added at increasing concentrations 24 h after seeding for dose-dependent assays. […] After 48 h incubation, cell viability was assessed by MTT assay, as described in a previous study [30]. Control experiments were performed by either growing cells in the absence of the compound or by supplementing the cell cultures with identical volumes of buffer (water:acetone, 1:1 v/v). Each value is the mean of three independent experiments, each with three determinations. Significance was determined by Student’s t-test.
Data set [2] is described as follows: In-solution stability by 1H-NMR over time. It counts as physicochemical. As to the method: To compare the solution stability of the complexes, ^1H-NMR and UV–vis spectra over time were recorded for 4Pt type species dissolved in diverse aqueous (phosphate buffer, PB; pH 7.4): organic solvent mixtures, i.e., 1:1 v/v D2O:acetone-d6; 9:1 v/v PB:DMSO-d6; 1:1 v/v PB:DMSO-d6 and DMSO-d6. These solvents were selected to verify the stability in pseudo-physiological conditions in the presence of solvents with different coordinating properties and concentrations.
The appropriate 4Pt complex (5 mg) was dissolved in 0.5 mL of DMSO-d6 or acetone-d6. Calculated volumes of solution were diluted to 600 µL with the appropriate volumes of PB in D2O (25 mM, pH 7.4) and/or DMSO-d6 to provide a 1 mM solution of the complex with the appropriate v/v ratio of solvents. Samples were incubated at 37 °C, and NMR spectra were recorded at different times.

Data set [3] relates to H9c2 (rat cardiomyoblast cells). Nature of the data set: MTT cytotoxicity assay on H9c2 cells. The class given is cell-based. The following applies: 48 h incubation.
Method: as §6
Data set [4] has as its system A431 (epidermoid carcinoma cells). Nature of the data set: MTT cytotoxicity assay on A431 cells. The class given is cell-based, human. The following applies: for IC50: 48 h incubation; for Selectivity Index H9c2/A431 / Selectivity Index HaCaT/A431: IC50 immortalized cells/IC50 cancer cells.
Method: as §6
Data set [5] deals with MCF-7 (breast cancer cells). Briefly: MTT cytotoxicity assay on MCF7 cells. The following applies: for IC50: 48 h incubation; for Selectivity Index H9c2/MCF7 / Selectivity Index HaCaT/MCF7: IC50 immortalized cells/IC50 cancer cells. The class given is cell-based, human.
Method: as §6
The subject of data set [6] is MCF-7, A431, H9c2 and HaCaT cells. Briefly: MTT assay, all the analyzed cell lines (statement in words). The class given is cell-based. The following applies: 48 h. As to the method:
The biological effect of the Pt-compounds was tested on two human tumor cell lines, MCF-7 (breast cancer cells) and A431 (epidermoid carcinoma cells), and two non-tumorigenic cell lines, H9c2 (rat cardiomyoblast cells), and HaCaT (human keratinocyte cells), using the MTT assay. […] Indeed, due to their inertness towards the substitution of the sugar ligand, their biological activity can be influenced by the nature of the sugar ligand, whose presence in the complex can affect its internalization or mechanism of action once inside the cell. On the other hand, in the case of the five-coordinate complexes, the loss of the sugar tag plausibly determines their substantial leveling of activities. […] The behavior of 4Pt-im was very similar to that of 4Pt-py.
(§1) A431, H9c2, and MCF7 cells were purchased from American Type Culture Collection (ATCC). HaCaT cells were from Innoprot (Derio, Spain). Cells were cultured in DMEM (Sigma-Aldrich, St. Louis, MO, USA), supplemented with 10% fetal bovine serum (HyClone, Thermo Scientific, Logan, UT, USA) and antibiotics in a 5% CO2 humidified atmosphere at 37 °C. The growth medium of H9c2 cells was implemented with 2 mM L-glutamine and 2 mM sodium pyruvate. […] After 48 h incubation, cell viability was assessed by MTT assay, as described in a previous study. […] Significance was determined by Student’s t-test.

Data set [7] concerns A431 cells. Briefly: LDH release (necrosis). It counts as cell-based, human. The following applies: 10 and 20 µM, 48 h. As to the method: (§2) The cell death mechanism induced by 4Pt-py was analyzed on A431 cells. First, the internalization process of 4Pt-py was evaluated by studying the involvement of GLUT receptors. In particular, 4Pt-py internalization and cytotoxicity were tested using quercetin as a glucose transporter inhibitor [24, 30, 42]. […] The 10 µM concentration used was very similar to the IC50 value, and then, a double value (20 µM) was also used to definitely exclude necrosis at very high concentrations.
The occurrence of necrosis was determined by measuring the release of lactate dehydrogenase (LDH) in the culture medium, as described by Sucha et al.. The LDH content of the medium from untreated cells was referred to as a spontaneous release, whereas the LDH total cellular content was determined upon cell lysis. The percentage of LDH release was calculated as:(1) LDH release % = [experimental−spontaneus release/total content−spontaneous release]×100
Figure 8 Analysis of the mechanism of action of 4Pt-py. (A) Glucose-transporter-dependent cytotoxicity of 4Pt-py on A431 cells. […] Cell viability was assessed using the MTT assay after 48 h incubation. […] (B) Cells were incubated with increasing amounts of 4Pt-py for 48 h, and the release of LDH was measured. […] The % of LDH release was calculated as described in the Materials and Methods section.

In data set [8] the test system is A431 cells. The following applies: IC50 value (12 µM) and 20 µM, 48 h. As to the method:
(§3) The activation of the apoptotic pathway was analyzed by Western blotting and an analysis of the mitochondrial potential as it is well known that mitochondrial outer membrane permeabilization is essential to initiate mitochondrial apoptosis.
Each value is the mean of three independent experiments, each with three determinations. Significance was determined by Student’s t-test.
(§4) A431 cells were incubated with 12 μM of 4Pt-py for 48 h. (A,B) Analysis by Western blotting of pro-caspase-3 and -9. Β-actin or GAPDH was used as the loading control.

For the next data set, the system named is procaspase-9. The following applies: A431 cells, 12 μM, 48 h. As to the method: as §3
(§5) A431 cells were plated at a density of 3 × 10^5 cells cm^−2 in a complete medium for 24 h and then treated for 48 h with 12 µM 4Pt-py. At the end of the incubation, both untreated and treated cells were analyzed, as described previously for Western blot analyses. Upon the determination of total protein concentration in the supernatant by the Bradford assay, samples were analyzed by SDS-PAGE and Western blot using specific antibodies directed towards procaspase-3 or -9 (Cell Signal Technology, Danvers, MA, USA). β-actin (Sigma-Aldrich) or GAPDH (Thermo Fisher, Rockford, IL, USA) was used as the loading control. Each value is the mean of three independent experiments, each with three determinations. Significance was determined by Student’s t-test.
as §4

For a further data set, the system named is procaspase-3. The following applies: A431 cells, 12 μM, 48 h. As to the method:
as §3, §5, §4

For data set [9], the system named is A431 cells. Nature of the data set: GLUT1-inhibitor-mediated cytotoxicity assay (quercetin, MTT). It counts as cell-based, human. How it is done: as §2, §1
Figure 8 Analysis of the mechanism of action of 4Pt-py. […] Cell viability was assessed using the MTT assay after 48 h incubation. […] (B) Cells were incubated with increasing amounts of 4Pt-py for 48 h, and the release of LDH was measured. […] The % of LDH release was calculated as described in the Materials and Methods section.

In data set [10] the test system is A431 (epidermoid carcinoma cells). The following applies: 48 h incubation; read-out: MTT IC50 48 h, A431; cited from earlier work.
In data set [11] the test system is HaCaT (human keratinocyte cells). The following applies: 48 h incubation; read-out: MTT IC50 48 h, HaCaT; cited from earlier work.

In data set [1], `CC(=O)OC[C@H]1O[C@@H](n2cc(-c3c[n+]([Pt-2]4([CH3])[n+]5cccc6ccc7ccc[n+]4c7c65)cn3C)nn2)[C@H](OC(C)=O)[C@@H](OC(C)=O)[C@@H]1OC(C)=O.O=S(=O)([O-])C(F)(F)F` [4Pt-im] came in with an IC50 of 27 ± 7 µM. In data set [2] (1:1 v/v D2O:acetone-d6, over 3 days), the “Structural variations in solution (1H-NMR)” value was “No appreciable structural variations”. In addition, the IC50 in data set [3] came to 53 ± 11 µM. In data set [4], the IC50 was determined as 16 ± 8 µM, the “Selectivity Index H9c2/A431” value is given as 3.3 and the “Selectivity Index HaCaT/A431” value worked out at 1.69. For the same compound, in data set [5], the IC50 was determined as 43 ± 7 µM, the “Selectivity Index H9c2/MCF7” value amounted to 1.23 and the “Selectivity Index HaCaT/MCF7” value worked out at 0.63.
As to `Cn1c[n+]([Pt-2]2([CH3])[n+]3cccc4ccc5ccc[n+]2c5c43)cc1-c1cn([C@@H]2O[C@H](CO)[C@@H](O)[C@H](O)[C@H]2O)nn1.O=S(=O)([O-])C(F)(F)F` [4Pt-imdep], the IC50 in data set [1], in data set [3], in data set [4] and in [5] was above 200 µM in each case. Further, the “Toxic activity (in words)” value in data set [6] is given as “No toxic activity was observed”.
As for `CC(=O)OC[C@H]1O[C@@H](n2cc(-c3ccc[n+]([Pt-2]4([CH3])[n+]5cccc6ccc7ccc[n+]4c7c65)c3)nn2)[C@H](OC(C)=O)[C@@H](OC(C)=O)[C@@H]1OC(C)=O.O=S(=O)([O-])C(F)(F)F` [4Pt-py], the LDH release result with A431 cells [7] is recorded as “no LDH release was observed”. In addition, the “Mitochondrial potential (Δψm)” value with A431 cells [8] is given as “significant decrease”. This compound displayed an IC50 in data set [1] of 66 ± 11 µM. Also, the Pro-caspase-9 signal result with procaspase-9 is “small but significant decrease”. The Pro-caspase-3 signal result in the data set with procaspase-3 was “small but significant decrease”. For the same compound, the “Time to equilibrium of sugar ligand/DMSO exchange” value in data set [2] (1:1 v/v PB:DMSO-d6, 37 °C) is given as 24 h. Also, the “Inhibition of cytotoxicity by glucose transporter inhibitor quercetin” value in the data set on A431 cells [9] (A431 cells, 0.5–200 μM compound ± 5 μM quercetin, 48 h) is listed as “no inhibition of cytotoxicity was observed in the presence of quercetin”. This compound also yielded an IC50 in data set [3] of 22 ± 10 µM. Besides, in data set [4], the IC50 was 12 ± 2 µM, the “Selectivity Index H9c2/A431” value was found to be 1.83 and the “Selectivity Index HaCaT/A431” value is on record as 5.5. Further, in data set [5], half-maximal inhibition (IC50) required 35 ± 4 µM, the “Selectivity Index H9c2/MCF7” value was found to be 0.63 and the “Selectivity Index HaCaT/MCF7” value stood at 1.88.
For `N.N.[Cl][Pt][Cl]` [Cisplatin, reference compound], the IC50 was 39 ± 12 µM in data set [10], 6.6 ± 0.3 µM in [11], 8 ± 2.1 µM in data set [3] and 18 ± 1.6 µM in [5]. Also, in data set [4], the “Selectivity Index H9c2/A431” value is on record as 0.2. For the same compound, the “Selectivity Index HaCaT/A431” value in data set [4] is 0.17. In [5], the “Selectivity Index H9c2/MCF7” value turned out to be 0.44.
As to `O=c1c(O)c(-c2ccc(O)c(O)c2)oc2cc(O)cc(O)c12` [quercetin, reference compound], the “Lethality of quercetin alone” value in the data set on A431 cells [9] (5 μM, data not shown) is “non-lethal concentration”.
